Assay results: the NIST ThermoML archive (doi:10.1016/j.fluid.2015.07.012)
± gives the expanded uncertainty stated by the source.

Assay: xn = mol fraction of the nth substance listed
Details: Liquid; for viscosity: Capillary tube (Ostwald / Ubbelohde) method; for mass density: Vibrating tube method

CCO [ethanol] + O
Details | mass density, 10000 kPa [kg/m3] | mass density, 20000 kPa [kg/m3] | mass density, 30000 kPa [kg/m3] | mass density, 40000 kPa [kg/m3] | viscosity, 10000 kPa [mPa·s] | viscosity, 20000 kPa [mPa·s] | viscosity, 30000 kPa [mPa·s] | viscosity, 40000 kPa [mPa·s]
350.7 K, x1 = 0.1 | 933.68 ± 11 | 936.77 ± 11 | 941.46 ± 11 | 945.15 ± 11 | 0.537 ± 0.016 | 0.546 ± 0.016 | 0.556 ± 0.016 | 0.578 ± 0.017
350.7 K, x1 = 0.2 | 895.78 ± 11 | 900.9 ± 11 | 905.65 ± 11 | 911.39 ± 11 | 0.625 ± 0.014 | 0.638 ± 0.015 | 0.651 ± 0.016 | 0.681 ± 0.016
350.7 K, x1 = 0.3 | 863.89 ± 10 | 870.14 ± 10 | 876.58 ± 10 | 881.9 ± 10 | 0.632 ± 0.014 | 0.661 ± 0.014 | 0.684 ± 0.015 | 0.726 ± 0.015
350.7 K, x1 = 0.4 | 838.33 ± 10 | 845.24 ± 10 | 852.53 ± 10 | 859.05 ± 10 | 0.64 ± 0.014 | 0.669 ± 0.014 | 0.691 ± 0.015 | 0.737 ± 0.015
350.7 K, x1 = 0.6 | 798.55 ± 10 | 807.87 ± 10 | 815.61 ± 10 | 822.93 ± 10 | 0.595 ± 0.014 | 0.624 ± 0.014 | 0.654 ± 0.015 | 0.695 ± 0.015
350.7 K, x1 = 0.8 | 768.37 ± 10 | 778.79 ± 10 | 787.77 ± 10 | 795.87 ± 10 | 0.531 ± 0.014 | 0.57 ± 0.014 | 0.601 ± 0.014 | 0.643 ± 0.015
350.7 K, x1 = 1 | 745.63 ± 10 | 757.47 ± 10 | 766.87 ± 10 | 775.75 ± 10 | 0.461 ± 0.012 | 0.518 ± 0.013 | 0.555 ± 0.013 | 0.59 ± 0.013
373.2 K, x1 = 0.1 | 913.36 ± 11 | 918.8 ± 11 | 924.46 ± 11 | 928.74 ± 11 | 0.401 ± 0.014 | 0.397 ± 0.014 | 0.403 ± 0.014 | 0.421 ± 0.015
373.2 K, x1 = 0.2 | 874.72 ± 11 | 880.64 ± 11 | 886.74 ± 11 | 892.24 ± 11 | 0.448 ± 0.014 | 0.449 ± 0.015 | 0.459 ± 0.015 | 0.483 ± 0.015
373.2 K, x1 = 0.3 | 842.36 ± 10 | 849.56 ± 10 | 856.1 ± 10 | 862.39 ± 10 | 0.461 ± 0.014 | 0.473 ± 0.014 | 0.484 ± 0.015 | 0.515 ± 0.015
373.2 K, x1 = 0.4 | 815.79 ± 10 | 823.45 ± 10 | 830.81 ± 10 | 837.9 ± 10 | 0.462 ± 0.014 | 0.477 ± 0.014 | 0.489 ± 0.015 | 0.509 ± 0.015
373.2 K, x1 = 0.6 | 776.56 ± 10 | 785.48 ± 10 | 794.06 ± 10 | 801.93 ± 10 | 0.434 ± 0.014 | 0.451 ± 0.014 | 0.461 ± 0.014 | 0.489 ± 0.015
373.2 K, x1 = 0.8 | 747.1 ± 10 | 757.25 ± 10 | 767.44 ± 10 | 776.49 ± 10 | 0.381 ± 0.013 | 0.406 ± 0.013 | 0.439 ± 0.014 | 0.456 ± 0.014
373.2 K, x1 = 1 | 726.87 ± 10 | 738.25 ± 10 | 750.02 ± 10 | 757.87 ± 10 | 0.364 ± 0.012 | 0.382 ± 0.013 | 0.404 ± 0.013 | 0.443 ± 0.013
476.2 K, x1 = 0.1 | 802.54 ± 11 | 810.76 ± 11 | 819.25 ± 11 | 827.58 ± 11 | 0.148 ± 0.011 | 0.152 ± 0.011 | 0.159 ± 0.011 | 0.164 ± 0.011
476.2 K, x1 = 0.2 | 752.52 ± 11 | 764.89 ± 11 | 776.24 ± 11 | 786.01 ± 11 | 0.151 ± 0.011 | 0.157 ± 0.011 | 0.164 ± 0.011 | 0.168 ± 0.012
476.2 K, x1 = 0.3 | 713.85 ± 11 | 728.6 ± 11 | 743.62 ± 10 | 754.08 ± 10 | 0.144 ± 0.012 | 0.153 ± 0.012 | 0.164 ± 0.012 | 0.172 ± 0.012
476.2 K, x1 = 0.4 | 682.37 ± 10 | 700.31 ± 10 | 717.25 ± 10 | 730.44 ± 10 | 0.139 ± 0.012 | 0.148 ± 0.012 | 0.159 ± 0.012 | 0.167 ± 0.012
476.2 K, x1 = 0.6 | 636.05 ± 10 | 658.71 ± 10 | 679.71 ± 10 | 694.35 ± 10 | 0.125 ± 0.012 | 0.138 ± 0.012 | 0.15 ± 0.012 | 0.161 ± 0.012
476.2 K, x1 = 0.8 | 605.36 ± 10 | 633.16 ± 10 | 656.43 ± 10 | 671.76 ± 10 | 0.113 ± 0.011 | 0.129 ± 0.011 | 0.144 ± 0.011 | 0.155 ± 0.011
476.2 K, x1 = 1 | 582.85 ± 10 | 613.37 ± 10 | 638.82 ± 10 | 656.07 ± 10 | 0.107 ± 0.011 | 0.123 ± 0.011 | 0.138 ± 0.011 | 0.151 ± 0.011
